The values below are quoted from earlier work in patent US20060233841A1, “Implantable gel compositions and method of manufacture” (priority 1999, published 2006).

For this data set the following is noted: reported value; solubility values considered to be determined at 20° C.

As to `CC(=O)OCC(COC(C)=O)OC(C)=O` [triacetin], the solubility in water is listed as 7.17 grams in 100 ml of water.
